The results in this text go back to article PMC8482776 (ACS Omega, 2021).

Series [1] deals with C. albicans (ATCC 10231). As to the kind of experiment: Membrane permeabilization assay. The class given is cell-based. The note with it: 8b, 8c at 1 × MIC, 2 × MIC, 4 × MIC (0.5, 1, 2 μg/mL); AMB 1 μg/mL; 3 h at 28 °C.
For series [2], the system named is C. albicans (ATCC 10231). As to the kind of experiment: Microdilution MIC90, strain A. The note with it: for MIC90: yeast, 24 h at 37 °C, triplicate. It counts as cell-based.
A further series has as its system Asp. niger (PTCC 5154). As to the kind of experiment: Microdilution MIC90, strain I. Conditions: Aspergillus niger, PTCC5154, 48 h, filamentous fungi, 48 h at 37 °C, triplicate. The class given is cell-based, Aspergillus niger.
For series [3], the system named is Asp. nidulans (PTCC 5014). Put plainly: Microdilution MIC90, strain F. It counts as cell-based, Aspergillus nidulans. The note with it: filamentous fungi, 48 h at 37 °C, triplicate.
The next series relates to T. rubrum (PTCC 5143). As to the kind of experiment: Microdilution MIC90, strain K. The class given is cell-based, Trichophyton rubrum. Conditions: filamentous fungi, 48 h at 37 °C, triplicate.
For a further series, the system named is M. canis (PTCC 5069). As to the kind of experiment: Microdilution MIC90, strain O. The class given is cell-based. Conditions: Microsporum canis, PTCC5069, 48 h.
Series [4] has as its system Asp. flavus (ATCC 204304). As to the kind of experiment: Microdilution MIC90, strain G. The class given is cell-based, Aspergillus flavus. The note with it: filamentous fungi, 48 h at 37 °C, triplicate.
Series [5] concerns Microsporum gypseum (PTCC 5070). Put plainly: Microdilution MIC90, strain L. It counts as cell-based. Conditions: filamentous fungi, 48 h at 37 °C, triplicate.
The subject of series [6] is T. schoenleinii (PTCC 5221). Put plainly: Microdilution MIC90, strain N. The note with it: Trichophyton schoenleinii, PTCC5221, 48 h. The class given is cell-based.
For series [7], the system named is C. parapsilosis (ATCC 22019). As to the kind of experiment: Microdilution MIC90, strain D. The class given is cell-based. The note with it: 24 h.
Series [8] deals with C. tropicalis (PTCC 5028). As to the kind of experiment: Microdilution MIC90, strain E. It counts as cell-based. Conditions: 24 h.
For series [9], the system named is Asp. fumigatus (PTCC 5009). Put plainly: Microdilution MIC90, strain H. It counts as cell-based. The note with it: Aspergillus fumigatus, PTCC5009, 48 h, filamentous fungi, 48 h at 37 °C, triplicate.
The next series concerns Asp. terreus (PTCC 5023). Put plainly: Microdilution MIC90, strain J. It counts as cell-based, Aspergillus terreus. Conditions: Aspergillus terreus, PTCC5023, 48 h, filamentous fungi, 48 h at 37 °C, triplicate.
The subject of series [10] is T. mentagrophytes (PTCC 5054). Put plainly: Microdilution MIC90, strain M. It counts as cell-based. Conditions: Trichophyton mentagrophytes, PTCC5054, 48 h.
The test system of a further series is C. krusei (ATCC 6258). Put plainly: Microdilution MIC90, strain B. It counts as cell-based. The note with it: for MIC90: yeast, 24 h at 37 °C, triplicate.
Another series has as its system C. glabrata (ATCC 90030). Put plainly: Microdilution MIC90, strain C. Conditions: yeast, 24 h at 37 °C, triplicate. It counts as cell-based.
For series [11], the system named is C. albicans (ATCC 10231). Put plainly: Murine model of systemic candidiasis. It counts as in vivo. The note with it: neutropenic mice (n = 5), 15 mg/kg oral gavage, left kidney tissue.
Series [12] deals with human red blood cells (hRBCs). Put plainly: Hemolysis assay. The class given is cell-based. The note with it: positive control, 2 h at 37 °C.
The mark [13] stands for this setting: Aspergillus nidulans, PTCC5014, 48 h.
[14] abbreviates: Trichophyton rubrum, PTCC5143, 48 h.
Setting [15] is: Aspergillus flavus, ATCC204304, 48 h.

Values after ≈ are worked out from the molar mass of the structure shown. Values joined by “and” are separate entries in the source; they are usually repeats but may differ in a detail not shown here. Equal values may be shown once.

As to `C[C@@H]1[C@H](O)[C@@H](C)/C=C/C=C/C=C/C=C/C=C/C=C/C=C/[C@H](O[C@@H]2O[C@H](C)[C@@H](O)[C@H](N)[C@@H]2O)C[C@@H]2O[C@](O)(C[C@@H](O)C[C@@H](O)[C@H](O)CC[C@@H](O)C[C@@H](O)CC(=O)O[C@H]1C)C[C@H](O)[C@H]2C(=O)O` [AMB, amphotericin B, reference compound], the “cellular uptake of the PI dye” value with C. albicans (ATCC 10231) [1] is on record as “increased the PI dye uptake”. In the series on C. albicans (ATCC 10231) [2] (Candida albicans, ATCC10231), this compound showed a minimal inhibitory concentration (MIC) of 1 µg/mL (≈ 1.08 µM).

Take `Cc1ccc(NC(=O)Nc2nnc(SCC(O)(Cn3cncn3)c3ccc(F)cc3F)s2)cc1` (stereo not shown) [Compound 8e, 1-(5-((2-(2,4-Difluorophenyl)-2-hydroxy-3-(1H-1,2,4-triazol-1-yl)propyl)thio)-1,3,4-thiadiazol-2-yl)-3-(p-tolyl)urea]: the MIC90 is 16 µg/mL (≈ 31.8 µM) in the series on Asp. niger (PTCC 5154); 2 to 4 µg/mL (≈ 3.97 to 7.94 µM) in series [3] (setting [13]); 4 μg·mL^–1 in series [3]; 8 µg/mL (≈ 15.9 µM) against T. rubrum (PTCC 5143) (setting [14]); 16 µg/mL (≈ 31.8 µM) against M. canis (PTCC 5069); 8 µg/mL (≈ 15.9 µM) in [4] (setting [15]). In addition, the MIC90 is 2 μg·mL^–1 in series [5]; 8 µg/mL (≈ 15.9 µM) in series [6]; 0.5 µg/mL (≈ 0.993 µM) in the series with C. albicans (ATCC 10231) [2] (24 h, strain A); 1 μg·mL^–1 in the series with C. albicans (ATCC 10231) [2] (strain A); 8 µg/mL (≈ 15.9 µM) in series [7]; 16 µg/mL (≈ 31.8 µM) in series [8]. Moreover, the MIC90 in series [9] was 16 µg/mL (≈ 31.8 µM); against Asp. terreus (PTCC 5023), 16 µg/mL (≈ 31.8 µM); in series [10], 32 µg/mL (≈ 63.5 µM); in the series on C. krusei (ATCC 6258) (24 h), 0.5 µg/mL (≈ 0.993 µM); with C. krusei (ATCC 6258) it was 1 μg·mL^–1. For the same compound, the “fold greater potency than that of FLC” value in the series on C. albicans (ATCC 10231) [2] (strain A, from MIC values) came out at 32 fold; in the series with C. krusei (ATCC 6258) (from MIC values), 32 fold.

`O=C(Nc1cccc(F)c1)Nc1nnc(SCC(O)(Cn2cncn2)c2ccc(F)cc2F)s1` (stereo not shown) [Compound 8g, 1-(5-((2-(2,4-Difluorophenyl)-2-hydroxy-3-(1H-1,2,4-triazol-1-yl)propyl)thio)-1,3,4-thiadiazol-2-yl)-3-(3-fluorophenyl)urea]: the MIC90 was 1 to 16 µg/mL (≈ 1.97 to 31.5 µM) in the series on C. glabrata (ATCC 90030) (24 h); 1 μg·mL^–1 in the series on C. glabrata (ATCC 90030); 16 µg/mL (≈ 31.5 µM) in the series with Asp. niger (PTCC 5154); 8 µg/mL (≈ 15.8 µM) in [3] (setting [13]); 4 µg/mL (≈ 7.88 µM) with T. rubrum (PTCC 5143) (setting [14]); 8 µg/mL (≈ 15.8 µM) against M. canis (PTCC 5069). Further, the MIC90 in series [4] (setting [15]) is 2 to 4 µg/mL (≈ 3.94 to 7.88 µM); in series [4], 4 μg·mL^–1; in series [5], 4 μg·mL^–1; in [6], 8 µg/mL (≈ 15.8 µM); in the series on C. albicans (ATCC 10231) [2] (24 h, strain A), 2 µg/mL (≈ 3.94 µM); in [7], 0.5 µg/mL (≈ 0.985 µM). Further, the MIC90 in [8] came out at 16 µg/mL (≈ 31.5 µM); in series [9], 16 µg/mL (≈ 31.5 µM); in the series on Asp. terreus (PTCC 5023), 32 µg/mL (≈ 63.1 µM); in series [10] it was 16 µg/mL (≈ 31.5 µM); against C. krusei (ATCC 6258) (24 h) it was 2 µg/mL (≈ 3.94 µM).

Turning to `O=C(Nc1ccccc1)Nc1nnc(SCC(O)(Cn2cncn2)c2ccc(F)cc2F)s1` (stereo not shown) [Compound 8o, 1-(5-((2-(2,4-Difluorophenyl)-2-hydroxy-3-(1H-1,2,4-triazol-1-yl)propyl)thio)-1,3,4-thiadiazol-2-yl)-3-phenylurea], the MIC90 is 32 µg/mL (≈ 65.4 µM) against C. glabrata (ATCC 90030) (24 h); 32 µg/mL (≈ 65.4 µM) in the series with Asp. niger (PTCC 5154); 2 to 4 µg/mL (≈ 4.09 to 8.17 µM) in series [3] (setting [13]); 2 μg·mL^–1 in series [3]; 2 to 4 µg/mL (≈ 4.09 to 8.17 µM) against T. rubrum (PTCC 5143) (setting [14]); 4 μg·mL^–1 with T. rubrum (PTCC 5143). The MIC90 against M. canis (PTCC 5069) came to 16 µg/mL (≈ 32.7 µM); in series [4] (setting [15]), 8 µg/mL (≈ 16.3 µM); in series [5], 4 μg·mL^–1; in series [6] it was 16 µg/mL (≈ 32.7 µM); in series [7], 8 µg/mL (≈ 16.3 µM); in series [8], 16 µg/mL (≈ 32.7 µM). Also, the MIC90 in series [9] worked out at 32 µg/mL (≈ 65.4 µM); with Asp. terreus (PTCC 5023), 8 µg/mL (≈ 16.3 µM); in series [10] it was 16 µg/mL (≈ 32.7 µM); against C. krusei (ATCC 6258) (24 h) it was 32 µg/mL (≈ 65.4 µM).

For `O=C(Nc1nnc(SCC(O)(Cn2cncn2)c2ccc(F)cc2F)s1)Nc1ccc(F)cc1F` (stereo not shown) [Compound 8p, 1-(2,4-Difluorophenyl)-3-(5-((2-(2,4-difluorophenyl)-2-hydroxy-3-(1H-1,2,4-triazol-1-yl)propyl)thio)-1,3,4-thiadiazol-2-yl)urea], the MIC90 is 32 µg/mL (≈ 60.9 µM) with C. glabrata (ATCC 90030) (24 h); 8 µg/mL (≈ 15.2 µM) in series [3] (setting [13]); 16 µg/mL (≈ 30.4 µM) against T. rubrum (PTCC 5143) (setting [14]); 16 µg/mL (≈ 30.4 µM) in the series with M. canis (PTCC 5069); 2 to 4 µg/mL (≈ 3.81 to 7.61 µM) in series [4] (setting [15]); 4 μg·mL^–1 in series [4]. In addition, the MIC90 in [5] was determined as 4 μg·mL^–1; in [6] it was 16 µg/mL (≈ 30.4 µM); in series [7], 8 µg/mL (≈ 15.2 µM); in [8], 32 µg/mL (≈ 60.9 µM); in the series on Asp. terreus (PTCC 5023) it was 16 µg/mL (≈ 30.4 µM); in series [10], 16 µg/mL (≈ 30.4 µM).

Turning to `Cc1ccc(NC(=O)Nc2nnc(SCC(O)(Cn3cncn3)c3ccc(F)cc3F)s2)cc1Cl` (stereo not shown) [Compound 8r, 1-(3-Chloro-4-methylphenyl)-3-(5-((2-(2,4-difluorophenyl)-2-hydroxy-3-(1H-1,2,4-triazol-1-yl)propyl)thio)-1,3,4-thiadiazol-2-yl)urea], the MIC90 is 32 µg/mL (≈ 59.5 µM) in the series on C. glabrata (ATCC 90030) (24 h); 32 µg/mL (≈ 59.5 µM) in the series with Asp. niger (PTCC 5154); 8 µg/mL (≈ 14.9 µM) in [3] (setting [13]); 2 to 4 µg/mL (≈ 3.72 to 7.43 µM) in the series on T. rubrum (PTCC 5143) (setting [14]); 4 μg·mL^–1 with T. rubrum (PTCC 5143); 32 µg/mL (≈ 59.5 µM) against M. canis (PTCC 5069). For the same compound, the MIC90 in [4] (setting [15]) is 2 to 4 µg/mL (≈ 3.72 to 7.43 µM); in series [4] it was 4 μg·mL^–1; in [5], 4 μg·mL^–1; in [6] it was 32 µg/mL (≈ 59.5 µM); against C. albicans (ATCC 10231) [2] (24 h, strain A) it was 64 µg/mL (≈ 119 µM); in [7] it was 16 µg/mL (≈ 29.7 µM). Also, the MIC90 in series [8] came out at 64 µg/mL (≈ 119 µM); in series [9] it was 32 µg/mL (≈ 59.5 µM); in the series with Asp. terreus (PTCC 5023), 16 µg/mL (≈ 29.7 µM); in series [10] it was 16 µg/mL (≈ 29.7 µM); in the series with C. krusei (ATCC 6258) (24 h), 32 µg/mL (≈ 59.5 µM).

For `C[C@@H](c1ncncc1F)[C@](O)(Cn1cncn1)c1ccc(F)cc1F` [VOR, voriconazole, reference compound], the “kidney fungal burden, CFU/g (mean ± SD)” value in the series on C. albicans (ATCC 10231) [11] is 318 CFU/g and 318 ± 66.5 ^b CFU/g.

Triton X-100 [reference compound]: the hemolysis in [12] is recorded as 86.2%.
